Assay results as given in patent US11560374B2, “Morpholinylpyridone compounds” (Sprint Bioscience AB, priority 2017, dated 2023).

Legend:
Vps34 enzyme = Vps34 enzyme (Homo sapiens (Human), UniProt Q8NEB9); assay: Vps34 Biochemical Assay (Adapta kinase assay); conditions: 20 μM ATP and 200 μM PI:PS substrate mix, 1 h at room temperature, TR-FRET, read-out: Median IC50 nM Adapta
Procedure: Dilution series of compounds of the invention were prepared in DMSO at 100 times the final assay concentration (n1=n0/3 in 10 points). The compounds were further diluted to 4 times the assay concentration in assay buffer (Life technologies buffer Q, PV5125, diluted 5 times supplemented with 2 mM DTT and 2 mM MnCl2). 2.5 μl of the diluted compounds were added to a 384 well assay plate followed by 2.5 μl of 16.5 nM Vps34 enzyme (Life technologies, PV5126). Enzyme and compounds were pre-incubated at rt for 15 min. Then 5 μl of substrate mix containing 20 μM ATP (Life technologies, PV3227) and 200 μM PI:PS substrate (Life technologies, PV5122) in assay buffer was added to the wells containing compound and enzyme. Mixing was performed by pipetting several times. The reaction was incubated at room temperature for 1 h. Then 5 μl stop-detection mix, prepared as described in the Adapta kinase assay kit instructions (Life technologies, PV5099) containing Adapta Eu-anti-ADP antibody (2.3 nM), Alexa Fluor 647 ADP tracer (9 nM) and EDTA (30 mM) in TR-FRET buffer, was added to quench the reaction. Mixing was performed by pipetting several times. The assay plate was then incubated at room temperature for 30 min and read with Artemis micro plate reader. Percent inhibition of the compounds as compared to DMSO treated control samples was calculated. By the use of Dotmatics software compound concentration versus percent inhibition was fitted to generate IC50 values.

[1] = test system: autophagy in HOS cells (GFP-LC3); assay: High Content Screening Autophagy Assay (GFP-LC3 foci); format: cell-based; conditions: Homo sapiens; HOS cells expressing GFP-LC3; autophagy activated with KU-0063794 500 nM and Bafilomycin A1 5 nM; 6 hours; foci area per cell; read-out: Median IC50 nM Cellular assay (HOS-LC3)
Procedure: Human osteosarcoma cells (HOS) stably expressing a Green Fluorescent Protein (GFP) tagged LC3 (GFP-LC3) were used to determine the inhibitory effect on autophagy of proprietary compounds. For that purpose, autophagy was activated by using the mTOR inhibitor KU-0063794 at 500 nM in the presence of Bafilomycin A1 (Sigma-Aldrich) at 5 nM. Shortly, cells were plated overnight in clear bottom 96-well plates in DMEM-High Modified media (Hi-Clone Cat #SH30285.01). At the start of the experiment, the media was removed and replaced with fresh media containing the mTOR inhibitor, Bafilomycin A1 and the vehicle or a test compound as indicated. After 6 hours the media was removed, cells were washed twice with ice-cold phosphate buffered saline (PBS) and fixed with 4% paraformaldehyde for 20 minutes at room temperature. Then the cells were washed twice with ice-cold PBS before adding Hoechst 33342 at 1 μg/ml in PBS for nuclear staining. After incubation overnight at 4° C., cells were washed once with PBS to remove the excess of dye and 100 μl of PBS was added to each well. Images were acquired at 20× magnification, 6 images per well, using the ImageXpress automated microscope (Molecular Devices Inc.) and analyzed with MetaXpress software to identify LC3-GFP foci. Foci area per cell values were used to generate dose response curves and IC50 values were calculated using the non-linear fitting analysis in GraphPad Prism software. […] The results of the assay are shown in Table 2 (Median IC50 nM HOS-LC3).

Chain of Vps34 enzyme (Q8NEB9 whole entry): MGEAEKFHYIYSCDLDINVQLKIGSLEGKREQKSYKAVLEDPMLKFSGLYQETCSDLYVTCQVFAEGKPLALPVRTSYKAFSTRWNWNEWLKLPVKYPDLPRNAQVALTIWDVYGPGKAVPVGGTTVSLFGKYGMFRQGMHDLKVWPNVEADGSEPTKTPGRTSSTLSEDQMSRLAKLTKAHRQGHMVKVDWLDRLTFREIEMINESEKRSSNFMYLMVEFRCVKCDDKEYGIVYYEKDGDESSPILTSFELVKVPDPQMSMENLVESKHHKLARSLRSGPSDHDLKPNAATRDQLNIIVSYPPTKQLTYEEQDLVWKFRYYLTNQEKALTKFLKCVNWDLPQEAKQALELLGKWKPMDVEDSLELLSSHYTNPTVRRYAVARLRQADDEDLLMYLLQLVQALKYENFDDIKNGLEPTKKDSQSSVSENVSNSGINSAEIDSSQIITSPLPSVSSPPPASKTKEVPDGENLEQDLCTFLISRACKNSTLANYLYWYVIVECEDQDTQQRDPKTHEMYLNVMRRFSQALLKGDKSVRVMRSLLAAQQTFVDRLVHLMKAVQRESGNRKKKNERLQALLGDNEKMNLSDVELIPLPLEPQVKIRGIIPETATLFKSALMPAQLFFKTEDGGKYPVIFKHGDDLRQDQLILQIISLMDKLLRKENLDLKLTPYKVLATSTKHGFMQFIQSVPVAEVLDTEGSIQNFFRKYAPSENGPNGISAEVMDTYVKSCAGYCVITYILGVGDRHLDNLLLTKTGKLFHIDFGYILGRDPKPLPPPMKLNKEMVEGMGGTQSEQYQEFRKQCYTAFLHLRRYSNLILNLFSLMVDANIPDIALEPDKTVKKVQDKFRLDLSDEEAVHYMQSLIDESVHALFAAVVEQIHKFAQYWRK

| SMILES | IC50 (Vps34 enzyme) [nM] | IC50 [1] [nM] |
| --- | --- | --- |
| C[C@@H]1COCCN1c1cc(N2CCN(S(=O)(=O)Cc3ccc(F)cc3)CC2C(F)(F)F)[nH]c(=O)c1 (stereo partly drawn) [Example 8, 6-[4-[(4-Fluorophenyl)methylsulfonyl]-2-(trifluoromethyl)piperazin-1-yl]-4-[(3R)-3-methylmorpholin-4-yl]-1H-pyridin-2-one] | < 5 | 12 |
| C[C@@H]1COCCN1c1cc(N2CCN(S(=O)(=O)c3cncc(F)c3)CC2C(F)(F)F)[nH]c(=O)c1 (stereo partly drawn) [Example 10, 6-[4-[(5-Fluoro-3-pyridyl)sulfonyl]-2-(trifluoromethyl)piperazin-1-yl]-4-[(3R)-3-methylmorpholin-4-yl]-1H-pyridin-2-one] | < 5 | 106 |
| C[C@@H]1COCCN1c1cc(N2CCN(S(=O)(=O)C3CCOC3)CC2C(F)(F)F)[nH]c(=O)c1 (stereo partly drawn) [Example 12, 4-[(3R)-3-methylmorpholin-4-yl]-6-[4-tetrahydrofuran-3-ylsulfonyl-2-(trifluoromethyl)piperazin-1-yl]-1H-pyridin-2-one] | < 5 | 55 |
| C[C@@H]1COCCN1c1cc(N2CCN(S(=O)(=O)N3CCCC3)CC2C(F)(F)F)[nH]c(=O)c1 (stereo partly drawn) [Example 14, 4-[(3R)-3-methylmorpholin-4-yl]-6-[4-pyrrolidin-1-ylsulfonyl-2-(trifluoromethyl)piperazin-1-yl]-1H-pyridin-2-one] | < 5 |  |
| C[C@@H]1COCCN1c1cc(N2CCN(S(=O)(=O)c3ccc(F)cc3)CC2C(F)(F)F)[nH]c(=O)c1 (stereo partly drawn) [Example 20, 6-[4-(4-Fluorophenyl)sulfonyl-2-(trifluoromethyl)piperazin-1-yl]-4-[(3R)-3-methylmorpholin-4-yl]-1H-pyridin-2-one] | < 5 | 223 |
| C[C@@H]1COCCN1c1cc(N2CCN(S(=O)(=O)c3ccnn3C)CC2C(F)(F)F)[nH]c(=O)c1 (stereo partly drawn) [Example 22, 4-[(3R)-3-methylmorpholin-4-yl]-6-[4-(2-methylpyrazol-3-yl)sulfonyl-2-(trifluoromethyl)piperazin-1-yl]-1H-pyridin-2-one] |  | 95 |
| C[C@@H]1COCCN1c1cc(N2CCN(S(=O)(=O)N3CCCCC3)CC2C(F)(F)F)[nH]c(=O)c1 (stereo partly drawn) [Example 26, 4-[(3R)-3-methylmorpholin-4-yl]-6-[4-(1-piperidylsulfonyl)-2-(trifluoromethyl)piperazin-1-yl]-1H-pyridin-2-one] | < 5 | 139 |
| C[C@@H]1COCCN1c1cc(N2CCN(S(=O)(=O)N3CCOCC3)CC2C(F)(F)F)[nH]c(=O)c1 (stereo partly drawn) [Example 28, 4-[(3R)-3-methylmorpholin-4-yl]-6-[4-morpholinosulfonyl-2-(trifluoromethyl)piperazin-1-yl]-1H-pyridin-2-one] |  | 248 |
| Cc1nc(S(=O)(=O)N2CCN(c3cc(N4CCOC[C@H]4C)cc(=O)[nH]3)C(C(F)(F)F)C2)cn1C (stereo partly drawn) [Example 30, 6-[4-(1,2-Dimethylimidazol-4-yl)sulfonyl-2-(trifluoromethyl)piperazin-1-yl]-4-[(3R)-3-methylmorpholin-4-yl]-1H-pyridin-2-one] | < 5 | 84 |
| C[C@@H]1COCCN1c1cc(-c2ccc(S(C)(=O)=O)cc2C(F)(F)F)[nH]c(=O)c1 [Example 33, 4-[(3R)-3-methylmorpholin-4-yl]-6-[4-methylsulfonyl-2-(trifluoromethyl)phenyl]-1H-pyridin-2-one] | < 5 | 491 |
| C[C@@H]1COCCN1c1cc(-c2ccc(S(=O)(=O)N(C)C)cc2C(F)(F)F)[nH]c(=O)c1 [Example 35, N,N-dimethyl-4-[4-[(3R)-3-methylmorpholin-4-yl]-6-oxo-1H-pyridin-2-yl]-3-(trifluoromethyl)benzenesulfonamide] | < 5 | 458 |

Further lines, results first:

| IC50 (Vps34 enzyme) [nM] | IC50 [1] [nM] | SMILES |
| --- | --- | --- |
| < 5 | 33 | C[C@@H]1COCCN1c1cc(N2CCN(S(C)(=O)=O)CC2C(F)(F)F)[nH]c(=O)c1 (single isomer, unassigned) [Example 6-1] |
| 15 |  | C[C@@H]1COCCN1c1cc(N2CCN(S(C)(=O)=O)CC2C(F)(F)F)[nH]c(=O)c1 (single isomer, unassigned) [Example 6-2] |
| < 5 | 17 | C[C@@H]1COCCN1c1cc(N2CCN(S(=O)(=O)N(C)C)CC2C(F)(F)F)[nH]c(=O)c1 (stereo partly drawn) [Example 16, N,N-dimethyl-4-[4-[(3R)-3-methylmorpholin-4-yl]-6-oxo-1H-pyridin-2-yl]-3-(trifluoromethyl)piperazine-1-sulfonamide] |
| < 5 | 83 | COCCS(=O)(=O)N1CCN(c2cc(N3CCOC[C@H]3C)cc(=O)[nH]2)C(C(F)(F)F)C1 (stereo partly drawn) [Example 18, 6-[4-(2-Methoxyethylsulfonyl)-2-(trifluoromethyl)piperazin-1-yl]-4-[(3R)-3-methylmorpholin-4-yl]-1H-pyridin-2-one] |
|  | 28 | C[C@@H]1COCCN1c1cc(N2CCN(S(=O)(=O)C3CC3)CC2C(F)(F)F)[nH]c(=O)c1 (stereo partly drawn) [Example 24, 6-[4-Cyclopropylsulfonyl-2-(trifluoromethyl)piperazin-1-yl]-4-[(3R)-3-methylmorpholin-4-yl]-1H-pyridin-2-one] |
| < 5 |  | C[C@@H]1COCCN1c1cc(N2CCN(S(=O)(=O)C3(C)CC3)CC2C(F)(F)F)[nH]c(=O)c1 (stereo partly drawn) [Example 31, 6-[4-(1-methylcyclopropyl)sulfonyl-2-(trifluoromethyl)piperazin-1-yl]-4-[(3R)-3-methylmorpholin-4-yl]-1H-pyridin-2-one] |
